# Where two headings read alike, the source gives them in different places.
# Tests used:
# A-427 cells = assay: Cell viability assay (CellTiter-Glo, adherent); type: cell-based; conditions: Homo sapiens, A-427, lung, KRAS p.G12D heterozygous, 72-hour treatment
# Method: (§1) For adherent viability assays, 0.5-1.0E+03 cells were seeded per well in 384-well plates (or 2.5-4.0E+04 cells per well in 96-well plates) and incubated at 37° C., 5% CO2, o/n. The following day, serially-diluted compound or DMSO was added to the cells, and the plates were incubated at 37° C., 5% CO2 for 72 hours. Cell viability was measured using a CellTiter-Glo® Luminescent Cell Viability Assay kit (Promega) according to the manufacturer's protocol. The luminescence signal of treated samples was normalized to DMSO control.
# A549 cells = assay: Cell viability assay (CellTiter-Glo, adherent); type: cell-based; conditions: Homo sapiens, A549, lung, KRAS p.G12S homozygous, 72-hour treatment
# Method: as §1
# AsPC-1 cells = assay: Cell viability assay (CellTiter-Glo, adherent); type: cell-based; conditions: Homo sapiens, ASPC1, AsPC-1, pancreas, KRAS p.G12D homozygous, 72-hour treatment
# Method: as §1
# COLO-205 cells = assay: Cell viability assay (CellTiter-Glo, adherent); type: cell-based; conditions: Homo sapiens, COLO-205, colon, KRAS WT BRAF p.V600E, 72-hour treatment
# Method: as §1
# Calu-1 cells = assay: Cell viability assay (CellTiter-Glo, adherent); type: cell-based; conditions: Homo sapiens, Calu-1, lung, KRAS p.G12C heterozygous, 72-hour treatment
# Method: as §1
# HCC-827 cells = assay: Cell viability assay (CellTiter-Glo, adherent); type: cell-based; conditions: Homo sapiens, HCC827, HCC-827, lung, KRAS WT EGFR p.E746_A750del, 72-hour treatment
# Method: as §1
# KM12 cells = assay: Cell viability assay (CellTiter-Glo, adherent); type: cell-based; conditions: Homo sapiens, KM12, colon, KRAS WT TPM3-NTRK fusion, 72-hour treatment
# Method: as §1
# LS 174T cells = assay: Cell viability assay (CellTiter-Glo, adherent); type: cell-based; conditions: Homo sapiens, LS174T, colon, KRAS p.G12D heterozygous, 72-hour treatment
# Method: as §1
# MIA PaCa-2 cells [1] = assay: Cell viability assay (CellTiter-Glo, adherent); type: cell-based; conditions: Homo sapiens, 72-hour treatment
# Method: as §1
# NCI-H1322 cells = assay: Cell viability assay (CellTiter-Glo, adherent); type: cell-based; conditions: Homo sapiens, 72 h, read-out: Cell Viability IC50
# Method: as §1
# NCI-H1355 cells = assay: Cell viability assay (CellTiter-Glo, adherent); type: cell-based; conditions: Homo sapiens, NCI-H1355, lung, KRAS p.G13C heterozygous, 72-hour treatment
# Method: as §1
# NCI-H1373 cells = assay: Cell viability assay (CellTiter-Glo, adherent); type: cell-based; conditions: Homo sapiens, NCI-H1373, lung, KRAS p.G12C homozygous, 72-hour treatment
# Method: as §1
# NCI-H1792 cells = assay: Cell viability assay (CellTiter-Glo, adherent); type: cell-based; conditions: Homo sapiens, NCI-H1792, lung, KRAS p.G12C heterozygous, 72-hour treatment
# Method: as §1
# NCI-H2030 cells = assay: Cell viability assay (CellTiter-Glo, adherent); type: cell-based; conditions: Homo sapiens, NCI-H2030, lung, KRAS p.G12C homozygous, 72-hour treatment
# Method: as §1
# NCI-H2122 cells = assay: Cell viability assay (CellTiter-Glo, adherent); type: cell-based; conditions: Homo sapiens, NCI-H2122, lung, KRAS p.G12C homozygous, 72-hour treatment
# Method: as §1
# NCI-H23 cells = assay: Cell viability assay (CellTiter-Glo, adherent); type: cell-based; conditions: Homo sapiens, NCI-H23, lung, KRAS p.G12C heterozygous, 72-hour treatment
# Method: as §1
# NCI-H358 cells = assay: Cell viability assay (CellTiter-Glo, adherent); type: cell-based; conditions: Homo sapiens, 72-hour treatment
# Method: as §1
# SW1463 cells = assay: Cell viability assay (CellTiter-Glo, adherent); type: cell-based; conditions: Homo sapiens, SW1463, colon, KRAS p.G12C homozygous, 72-hour treatment
# Method: as §1
# SW1573 cells = assay: Cell viability assay (CellTiter-Glo, adherent); type: cell-based; conditions: Homo sapiens, SW1573, lung, KRAS p.G12C homozygous, 72-hour treatment
# Method: as §1
# SW480 cells = assay: Cell viability assay (CellTiter-Glo, adherent); type: cell-based; conditions: Homo sapiens, SW480, colon, KRAS p.G12V homozygous, 72-hour treatment
# Method: as §1
# SW837 cells = assay: Cell viability assay (CellTiter-Glo, adherent); type: cell-based; conditions: Homo sapiens, SW837, colon, KRAS p.G12C heterozygous, 72-hour treatment
# Method: as §1
# UM-UC-3 cells = assay: Cell viability assay (CellTiter-Glo, adherent); type: cell-based; conditions: Homo sapiens, UMUC3, UM-UC-3, bladder, KRAS p.G12C homozygous, 72-hour treatment
# Method: as §1
# MIA PaCa-2 cells [2] = assay: Spheroid cell viability assay (CellTiter-Glo 3D); type: cell-based; conditions: Homo sapiens; MIA PaCa-2, pancreas, KRAS p.G12C homozygous; 72-hour treatment, spheroid culture
# Method: For spheroid viability assays, 2.5-4.0E+04 cells were seeded per well in 96-well spheroid microplates (Corning) and incubated at 37° C., 5% CO2 for 24 hours. The same procedure was followed as described above, except viability was measured using a CellTiter-Glo® 3D Cell Viability Assay kit (Promega) according to the manufacturer's protocol.
# [3] = tested on: MAPK, EGFR, AKT, S6, caspase-3 signaling in NCI-H358 and MIA PaCa-2; assay: Western blots of cellular signaling nodes; type: cell-based, human; conditions: 0.1 μM; both lines
# Text: This shifted species accumulated with increasing time and dose and was consistent with downstream inhibition of the MAPK pathway (i.e. p-MEK1/2 and p-ERK1/2) in both cell lines (FIGS. 41A and 41B).
# [4] = tested on: ERK1/2 phosphorylation in MIA PaCa-2 T2 tumors; assay: Tumor pharmacodynamic assay (p-ERK, MSD immunoassay); type: in vivo, mouse
# physchem = conditions: 5 mM glutathione
structure (smiles),measurement,setting,value
"C=CC(=O)N1CCN(c2nc(=O)n(-c3c(C)ccnc3C(C)C)c3nc(-c4c(O)cccc4F)c(F)cc23)[C@@H](C)C1 (atropisomer, axis not shown) [AMG 510, 6-fluoro-7-(2-fluoro-6-hydroxyphenyl)-1-(4-methyl-2-(2-propanyl)-3-pyridinyl)-4-((2S)-2-methyl-4-(2-propenoyl)-1-piperazinyl)pyrido[2,3-d]pyrimidin-2(1H)-one]",IC50,A-427 cells,> 7500 nM
same,IC50,A549 cells,> 7500 nM
same,IC50,AsPC-1 cells,> 7500 nM
same,IC50,COLO-205 cells,> 7500 nM
same,IC50,Calu-1 cells,4 ± 1 nM
same,IC50,HCC-827 cells,> 7500 nM
same,IC50,KM12 cells,> 7500 nM
same,IC50,LS 174T cells,> 7500 nM
same,IC50,"MIA PaCa-2 cells [1]; second of two lines (FIG. 40G: MIA PaCa-2), read-out: cellular viability IC50",~9 nM
same,IC50,"MIA PaCa-2 cells [1]; MIA PaCa-2, pancreas, KRAS p.G12C homozygous, adherent, read-out: Cell Viability IC50",5 ± 1 nM
same,IC50,NCI-H1322 cells,> 7500 nM
same,IC50,NCI-H1355 cells,> 7500 nM
same,IC50,NCI-H1373 cells,20 ± 6 nM
same,IC50,NCI-H1792 cells,11 ± 8 nM
same,IC50,NCI-H2030 cells,6 ± 3 nM
same,IC50,NCI-H2122 cells,32 ± 5 nM
same,IC50,NCI-H23 cells,6 ± 1 nM
same,IC50,"NCI-H358 cells; first of two lines (FIG. 40G: NCI-H358), read-out: cellular viability IC50",~6 nM
same,IC50,"NCI-H358 cells; NCI-H358, lung, KRAS p.G12C heterozygous, adherent, read-out: Cell Viability IC50",4 ± 1 nM
same,IC50,SW1463 cells,15 ± 7 nM
same,IC50,SW1573 cells,> 7500 nM
same,IC50,SW480 cells,> 7500 nM
same,IC50,SW837 cells,9 ± 6 nM
same,IC50,UM-UC-3 cells,5 ± 1 nM
same,IC50,MIA PaCa-2 cells [2],1 ± 1 nM
same,duration of effects on MAPK and EGFR,[3],> 24 h
same,onset of effects on MAPK and EGFR,[3],< 2 h
same,time at which p-S6 and caspase-cleavage effects emerged,[3],8 to 16 h
same,inhibition at 100 mg/kg,"[4]; Mus musculus, MIA PaCa-2 T2, 100 mg/kg oral single dose, 2 hours post-treatment, read-out: inhibition of p-ERK, reduction compared to control",69%
same,time of maximal inhibition of p-ERK post-treatment,[4]; single dose 10 mg/kg,2 to 4 h
same,half-life,physchem,3.27 h

# From patent US12582657B2, “Combination therapy including a KRAS G12C inhibitor and one or more additional pharmaceutically active agents for the treatment of cancers” (Amgen Inc., priority 2018, dated 2026)
